{"source": "patent US11678683B2", "about": "“Processed edible product comprising a polyelectrolyte complex and an antimicrobial compound” (Ceradis B.V., priority 2013, dated 2023)", "origin": "cited, not measured here", "key": {"[1]": {"settings": "neutral aqueous systems"}, "[2]": {"tested_on": "most fungi"}}, "data": [{"smiles": "C[C@@H]1C/C=C/C=C/C=C/C=C/[C@H](O[C@@H]2O[C@H](C)[C@@H](O)[C@H](N)[C@@H]2O)C[C@@H]2O[C@](O)(C[C@@H](O)C[C@H]3O[C@@H]3/C=C/C(=O)O1)C[C@H](O)[C@H]2C(=O)O", "note": "[Natamycin, natamycin]", "values": [{"measurement": "Solubility", "setting": "[1]", "result": "30-40 ppm"}, {"measurement": "MIC (Minimal Inhibitory Concentration)", "setting": "[2]", "result": "less than 10 ppm"}]}]}
